As usually defined, the IC50 is the concentration at which inhibition is half-maximal. Higher therefore signals a need for much substance.

These results are taken from article PMC8978638 (RSC Advances, 2021).

human AChE, sequence (P22303 32-614): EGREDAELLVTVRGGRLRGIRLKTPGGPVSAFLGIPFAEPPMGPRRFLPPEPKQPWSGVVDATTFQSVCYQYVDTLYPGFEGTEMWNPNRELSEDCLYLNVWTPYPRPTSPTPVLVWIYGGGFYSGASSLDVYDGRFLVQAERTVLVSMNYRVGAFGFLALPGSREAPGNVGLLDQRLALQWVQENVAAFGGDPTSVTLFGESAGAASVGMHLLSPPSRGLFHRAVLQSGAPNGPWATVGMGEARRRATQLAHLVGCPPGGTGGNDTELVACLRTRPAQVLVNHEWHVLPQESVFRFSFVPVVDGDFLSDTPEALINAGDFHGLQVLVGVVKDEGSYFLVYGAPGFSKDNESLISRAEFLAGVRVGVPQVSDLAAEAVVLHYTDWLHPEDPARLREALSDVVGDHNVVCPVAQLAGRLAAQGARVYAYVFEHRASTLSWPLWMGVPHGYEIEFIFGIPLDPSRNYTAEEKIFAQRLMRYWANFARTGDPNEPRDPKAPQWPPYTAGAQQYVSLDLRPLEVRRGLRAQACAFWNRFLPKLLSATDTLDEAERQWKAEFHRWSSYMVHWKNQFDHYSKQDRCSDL

One assay has as its target human AChE (Homo sapiens, UniProt P22303). Nature of the assay: Enzyme inhibition assay. In kind it is biochemical.
Settings: not given
The compound `COC(=O)c1ccccc1NC(=O)c1ccccc1` [Compound 03, methyl-2-benzamidobenzoate] yielded an IC50 of 0.25 ± 0.06 µM.
The same measure, in the same setting: the figure for `NNC(=O)c1ccccc1NC(=O)c1ccccc1` [Compound 04, N-(2-(hydrazinecarbonyl)phenyl)benzamide] is 27.65 ± 0.14 µM.
Still for that read-out and setting: the result for `O=C(Nc1ccccc1C(=O)N/N=C/c1ccc(Cl)cc1)c1ccccc1` [Compound 05, (E)-N-(2-(2-(4-Chlorobenzylidene)hydrazinecarbonyl)phenyl) benzamide] reads 1.03 ± 0.12 µM; that for `O=C(Nc1ccccc1C(=O)N/N=C/c1ccc(Br)cc1)c1ccccc1` [Compound 06, (E)-N-(2-(2-(4-Bromobenzylidene)hydrazinecarbonyl)phenyl)benzamide], 0.09 ± 0.05 µM.
Still for that read-out and setting: the figure for `CN(C)c1ccc(/C=N/NC(=O)c2ccccc2NC(=O)c2ccccc2)cc1` [Compound 07, (E)-N-(2-(2-(4-(Dimethylamino)benzylidene)hydrazinecarbonyl)phenyl)benzamide] is 25.2 ± 0.21 µM; for `O=C(Nc1ccccc1C(=O)N/N=C/c1ccc([N+](=O)[O-])cc1)c1ccccc1` [Compound 08, (E)-N-(2-(2-(4-Nitrobenzylidene)hydrazinecarbonyl)phenyl)benzamide] it is 14.8 ± 0.29 µM; for `CC(C)c1ccc(/C=N/NC(=O)c2ccccc2NC(=O)c2ccccc2)cc1` [Compound 09, (E)-N-(2-(2-(4-Isopropylbenzylidene)hydrazinecarbonyl)phenyl)benzamide] it is 23.1 ± 0.25 µM.
In the case of `O=C(Nc1ccccc1C(=O)N/N=C/c1ccc(O)cc1O)c1ccccc1` [Compound 10, (E)-N-(2-(2-(2,4-Dihydroxybenzylidene)hydrazinecarbonyl)phenyl)benzamide], it took 18.5 ± 0.19 µM to reach half-maximal inhibition (IC50).
On the same count and under the same terms, the figure for `O=C(Nc1ccccc1C(=O)N/N=C/c1ccccc1O)c1ccccc1` [Compound 11, (E)-N-(2-(2-(2-Hydroxybenzylidene)hydrazinecarbonyl)phenyl)benzamide] is 1.14 ± 0.35 µM; for `COc1ccc(/C=N/NC(=O)c2ccccc2NC(=O)c2ccccc2)cc1` [Compound 12, (E)-N-(2-(2-(4-Methoxybenzylidene)hydrazinecarbonyl)phenyl)benzamide] it is 20.4 ± 0.23 µM; for `O=C(Nc1ccccc1C(=O)N/N=C/c1ccccc1)c1ccccc1` [Compound 13, (E)-N-(2-(2-Benzylidenehydrazinecarbonyl)phenyl)benzamide] it is 0.11 ± 0.03 µM.

The target of a further assay is human BChE (Homo sapiens, UniProt P06276). Nature of the assay: Enzyme inhibition assay. In kind it is biochemical.
human BChE, sequence (P06276 29-602): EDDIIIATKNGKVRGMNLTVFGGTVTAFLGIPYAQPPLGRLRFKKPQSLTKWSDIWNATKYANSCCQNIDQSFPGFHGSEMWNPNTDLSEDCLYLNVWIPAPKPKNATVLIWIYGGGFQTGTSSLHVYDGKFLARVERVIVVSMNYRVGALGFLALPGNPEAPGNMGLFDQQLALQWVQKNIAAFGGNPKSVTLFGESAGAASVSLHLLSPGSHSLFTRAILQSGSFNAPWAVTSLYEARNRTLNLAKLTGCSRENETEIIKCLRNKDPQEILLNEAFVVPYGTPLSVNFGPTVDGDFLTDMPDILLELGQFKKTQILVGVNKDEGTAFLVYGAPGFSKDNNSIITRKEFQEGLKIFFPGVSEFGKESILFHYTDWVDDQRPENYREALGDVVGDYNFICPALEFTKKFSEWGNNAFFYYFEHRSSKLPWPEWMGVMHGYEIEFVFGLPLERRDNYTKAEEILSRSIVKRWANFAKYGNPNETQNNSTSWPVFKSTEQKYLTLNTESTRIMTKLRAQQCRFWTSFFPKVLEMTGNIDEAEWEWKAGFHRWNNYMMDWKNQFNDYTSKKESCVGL
Settings: not given
`COC(=O)c1ccccc1NC(=O)c1ccccc1` [Compound 03, methyl-2-benzamidobenzoate] returned an IC50 of 0.21 ± 0.06 µM.
The same measure, in the same setting: the figure for `NNC(=O)c1ccccc1NC(=O)c1ccccc1` [Compound 04, N-(2-(hydrazinecarbonyl)phenyl)benzamide] is 0.17 ± 0.12 µM; for `O=C(Nc1ccccc1C(=O)N/N=C/c1ccc(Cl)cc1)c1ccccc1` [Compound 05, (E)-N-(2-(2-(4-Chlorobenzylidene)hydrazinecarbonyl)phenyl) benzamide] it is 1.24 ± 0.12 µM; for `O=C(Nc1ccccc1C(=O)N/N=C/c1ccc(Br)cc1)c1ccccc1` [Compound 06, (E)-N-(2-(2-(4-Bromobenzylidene)hydrazinecarbonyl)phenyl)benzamide] it is 0.14 ± 0.05 µM.
Regarding `O=C(Nc1ccccc1C(=O)N/N=C/c1ccc([N+](=O)[O-])cc1)c1ccccc1` [Compound 08, (E)-N-(2-(2-(4-Nitrobenzylidene)hydrazinecarbonyl)phenyl)benzamide], half-maximal inhibition (IC50) was put at 0.19 ± 0.12 µM.
In turn, `O=C(Nc1ccccc1C(=O)N/N=C/c1ccc(O)cc1O)c1ccccc1` [Compound 10, (E)-N-(2-(2-(2,4-Dihydroxybenzylidene)hydrazinecarbonyl)phenyl)benzamide] showed an IC50 of 2.15 ± 0.26 µM.
Still for that read-out and setting: the figure for `O=C(Nc1ccccc1C(=O)N/N=C/c1ccccc1O)c1ccccc1` [Compound 11, (E)-N-(2-(2-(2-Hydroxybenzylidene)hydrazinecarbonyl)phenyl)benzamide] is 0.12 ± 0.09 µM; for `COc1ccc(/C=N/NC(=O)c2ccccc2NC(=O)c2ccccc2)cc1` [Compound 12, (E)-N-(2-(2-(4-Methoxybenzylidene)hydrazinecarbonyl)phenyl)benzamide] it is 18.34 ± 0.14 µM.
Still for that read-out and setting: the result for `O=C(Nc1ccccc1C(=O)N/N=C/c1ccccc1)c1ccccc1` [Compound 13, (E)-N-(2-(2-Benzylidenehydrazinecarbonyl)phenyl)benzamide] reads 0.1 ± 0.06 µM.

Test system in a further assay: not listed separately
Nature of the assay: DPPH free radical scavenging. Conditions: % scavenging of DPPH at 1 μg μL^−1 concentration.
`O=C1O[C@H]([C@@H](O)CO)C(O)=C1O` [Ascorbic acid, ascorbic acid, reference compound]: the “Scavenging (%)” value was found to be 96.39%.
On the same count and under the same terms, the figure for `COC(=O)c1ccccc1NC(=O)c1ccccc1` [Compound 03, methyl-2-benzamidobenzoate] is 37.17%; for `NNC(=O)c1ccccc1NC(=O)c1ccccc1` [Compound 04, N-(2-(hydrazinecarbonyl)phenyl)benzamide] it is 95.06%; for `O=C(Nc1ccccc1C(=O)N/N=C/c1ccc(Cl)cc1)c1ccccc1` [Compound 05, (E)-N-(2-(2-(4-Chlorobenzylidene)hydrazinecarbonyl)phenyl) benzamide] it is 35.37%.
On the same count and under the same terms, the figure for `O=C(Nc1ccccc1C(=O)N/N=C/c1ccc(Br)cc1)c1ccccc1` [Compound 06, (E)-N-(2-(2-(4-Bromobenzylidene)hydrazinecarbonyl)phenyl)benzamide] is 15.88%; for `CN(C)c1ccc(/C=N/NC(=O)c2ccccc2NC(=O)c2ccccc2)cc1` [Compound 07, (E)-N-(2-(2-(4-(Dimethylamino)benzylidene)hydrazinecarbonyl)phenyl)benzamide] it is 43.97%; for `O=C(Nc1ccccc1C(=O)N/N=C/c1ccc([N+](=O)[O-])cc1)c1ccccc1` [Compound 08, (E)-N-(2-(2-(4-Nitrobenzylidene)hydrazinecarbonyl)phenyl)benzamide] it is 20.20%.
On the same count and under the same terms, the figure for `CC(C)c1ccc(/C=N/NC(=O)c2ccccc2NC(=O)c2ccccc2)cc1` [Compound 09, (E)-N-(2-(2-(4-Isopropylbenzylidene)hydrazinecarbonyl)phenyl)benzamide] is 33.73%; for `O=C(Nc1ccccc1C(=O)N/N=C/c1ccc(O)cc1O)c1ccccc1` [Compound 10, (E)-N-(2-(2-(2,4-Dihydroxybenzylidene)hydrazinecarbonyl)phenyl)benzamide] it is 82.55%.
As to `O=C(Nc1ccccc1C(=O)N/N=C/c1ccccc1O)c1ccccc1` [Compound 11, (E)-N-(2-(2-(2-Hydroxybenzylidene)hydrazinecarbonyl)phenyl)benzamide], the “Scavenging (%)” value was determined as 67.54%.
Still for that read-out and setting: the figure for `COc1ccc(/C=N/NC(=O)c2ccccc2NC(=O)c2ccccc2)cc1` [Compound 12, (E)-N-(2-(2-(4-Methoxybenzylidene)hydrazinecarbonyl)phenyl)benzamide] is 30.09%; for `O=C(Nc1ccccc1C(=O)N/N=C/c1ccccc1)c1ccccc1` [Compound 13, (E)-N-(2-(2-Benzylidenehydrazinecarbonyl)phenyl)benzamide] it is 30.21%.

Staying with this assay, now noted: % scavenging of DPPH at 1 μg μL^−1 concentration; listed as 4.
Take `NNC(=O)c1ccccc1NC(=O)c1ccccc1` [Compound 04, N-(2-(hydrazinecarbonyl)phenyl)benzamide]: the “Scavenging (%)” value turned out to be 95.07%.
